Results reported in patent US10668125B2, “Peptide having highly-shifted accumulation to pancreatic cancer cells and tissues, and use of said peptide” (Niigata University, priority 2015, dated 2020).
Where no end group is shown, it is not given here.

Columns and labels:
[1] = tested on: KYN-2 cells and normal cells originating from various tissues; test: Test Example 1: accumulation of peptide to other cancer cells and normal cells (fluorescence microscope); format: cell-based, human; conditions: FITC-labeled peptide 2 μM, 2 hours at 37° C., FIG. 1
Experimental: (§1) These were maintained by subculture in the laboratory by the inventors.
(§2) Pancreatic cancer cells and HPNE cells were cultured using a 5% FBS-containing CS-C medium kit. KYN-2 cells, HaCaT cells, NHDF cells, MMNK-1 cells, and Liver cells were cultured using 10% FBS-containing RPMI1640 medium. Kidney cells were cultured using a proliferation medium for normal human renal epithelial cells (RenaLife Comp Kit). NuLi-1 cells were cultured using BEGM medium (Bronchial Epithelial Growth Medium, Serum-free). TIME cells were cultured using EBM-2-MV Bullet kit (Endothelial Cell Basal Medium-2 Bullet kit).
(§3) Those cells were cultured for 2 hours at 37° C. Subsequently, the cells were washed three times with the medium in order to remove the peptide-containing medium. Subsequently, the uptake of the various peptides in the living cells was visually evaluated using an inverted type fluorescence microscope. Prior to the microscopic examination, the culture supernatant containing the peptides were removed, the cells were washed three times with 1×PBS (−), and then the cells were treated with trypsin. Adherent cells were detached and were immediately transferred into a fresh 96-well plate. The cells were resuspended in a fresh culture fluid, and then a microscopic examination was performed.

[2] = tested on: various pancreatic cancer cells (BxPC3, PK-8, PL45, AsPC1, Panc1); test: Test Example 1: accumulation of peptide to pancreatic cancer cells (fluorescence microscope); format: cell-based, human; conditions: FITC-labeled peptide 2 μM, 2 hours at 37° C., FIG. 1
Experimental: as §1, §2, §3

[3] = tested on: BxPC3 cells; test: Test Example 1: quantitative fluorescence in BxPC3 cells relative to HPNE cells; format: cell-based, human; conditions: absorption into normal pancreatic duct epithelial cells (HPNE) designated as 1.0, 2 μM, 2 hours, FIG. 2B
Experimental: as §3
The graph of FIG. 2A is a graph showing the proportions of fluorescence intensities detected in various cells, the proportions being obtained by quantitatively analyzing the fluorescence detected in the various cells to which various peptides were added in Test Example 1, and determining relative values by designating the fluorescence detected in HPNE cells, which are a human immortalized normal pancreatic duct epithelial cell line, as 1.0. […]

[4] = tested on: PK-8 cells; test: Test Example 2: accumulation of peptide in tissues of mouse intraperitoneally transplanted with PK-8 cells; format: in vivo; conditions: NOD-SCID mice with PK-8 cells, i.v. 300 μg per 20 g body weight, 30 minutes after administration, FIG. 3B
Experimental: (§4) NOD-SCID mice (six-week-old female mice purchased from Crea-Japan, Inc.) intraperitoneally transplanted with Panc1 cells or PK-8 cells, which are human pancreatic cancer cells, in an amount of 1×10^6 cells in each animal, were produced as human pancreatic cancer cell-transplanted mice. Thirty days after the transplantation of human pancreatic cancer cells, Peptide 1 produced in Example 1 was intravenously (i.v.) injected to the mice in an amount of 300 μg with respect to 20 g of the mouse body weight. […] In FIG. 3A and FIG. 3B, the “Bright Field” refers to images taken in the bright field, and “FITC” refers to images taken in the dark field under the conditions of green fluorescence excitation at a wavelength of 488 nm.

[5] = tested on: Panc1 cells; test: Test Example 2: accumulation of peptide in tissues of mouse intraperitoneally transplanted with Panc1 cells; format: in vivo; conditions: NOD-SCID mice with Panc1 cells, i.v. 300 μg per 20 g body weight, 30 minutes after administration, FIG. 3A
Experimental: as §4

[6] = tested on: BxPC3 cells; test: Test Example 3: accumulation of peptide in tissues of mouse with BxPC3 cells transplanted into the pancreas; format: in vivo
Experimental: NOD-SCID mice (six-week-old female mice purchased from Crea-Japan, Inc.) having BxPC3 cells, which are human pancreatic cancer cells, transplanted into the pancreas in an amount of 1×10^6 cells in each animal, were produced as human pancreatic cancer cell-transplanted mice. Thirty days after the transplantation of human pancreatic cancer cells, Peptide 4 produced in Example 1 was intravenously (i.v.) injected to the mice in an amount of 150 μg with respect to 20 g of the mouse body weight. […] In FIG. 4, the “Bright Field” refers to images taken in the bright field, and “FITC” refers to images taken in the dark field under the conditions of green fluorescence excitation at a wavelength of 488 nm. Furthermore, in FIG. 4, “brain” means the brain, “heart” means the heart, “kidney” means the kidney, “liver” means the liver, “lung” means the lung, “muscle” means the skeletal muscle, “pancreas” means the pancreas, “spleen” means the spleen, and “tumor” means a malignant tumor. “Surface” means the surface of various organs, and “transection” means a transverse section of various organs.
FIG. 5 is a graph showing the proportions of the fluorescence intensities detected in various tissues, the proportions being obtained by designating the fluorescence detected in normal pancreas as 1.0.

Sequence	fluorescence detected in KYN-2 cells and normal cells originating from various tissues [1]	fluorescence detected in the various pancreatic cancer cells [2]	absorption ratio (S/N ratio) into BxPC3 cells [3]	fluorescence of FITC in tumor lesions and normal organs [4]	fluorescence of FITC in tumor lesions and normal organs [5]	fluorescence of FITC in tumor lesions and normal organs ([6]; NOD-SCID mice with BxPC3 cells in pancreas, i.v. 150 μg per 20 g body weight, 30 minutes after administration, FIG. 4)	S/N ratio in the target malignant tumor ([6]; absorption into normal pancreas designated as 1.0, i.v. 150 μg per 20 g, 30 minutes, FIG. 5)	S/N ratio in the kidneys ([6]; absorption into normal pancreas designated as 1.0, i.v. 150 μg per 20 g, 30 minutes, FIG. 5, ascribed to urinary excretion, not cell uptake)
ARRYTWIRA (also: FITC label, site not given here) [Peptide 2, IVV library-derived 9-amino acid residue peptide, synthesized FITC-labeled]	fluorescence was hardly detected	strong fluorescence was detected	about 6 times					
GYRRTTPSYWRMWLR (also: FITC label, site not given here) [Peptide 1, IVV library-derived 15-amino acid residue peptide, synthesized FITC-labeled]	fluorescence was hardly detected	strong fluorescence was detected	about 6 times	strong fluorescence of FITC was detected in the tumor and the metastatic lesions	strong fluorescence of FITC was detected in the tumor and the metastatic lesions			
RAWRQCRWR (also: FITC label, site not given here) [Peptide 3, IVV library-derived 9-amino acid residue peptide, synthesized FITC-labeled]	fluorescence was hardly detected	strong fluorescence was detected						
RRPTTWHKP (also: FITC label, site not given here) [Peptide 4, IVV library-derived 9-amino acid residue peptide, synthesized FITC-labeled]	fluorescence was hardly detected	strong fluorescence was detected				strong fluorescence of FITC was detected in the tumor and the kidneys	about 9 times	about 11 times
